Patent publication US8058243B2, “Method for treating a brain cancer with ifenprodil” (HSC Research and Development Limited Partnership, priority 2006, dated 2011)
Counter-ions that a name gives are not always drawn. Like-named read-outs stand apart in the source and are kept apart here.

Tested on: murine neural precursor cells (neurosphere cultures)
Test: HTS of LOPAC library against secondary neurosphere cultures, MTT proliferation assay at 3 μM, day 7 (z score, P value)
Assay type: cell-based, mouse
[1] = yes/no: significantly inhibited neurosphere proliferation (P<0.01) in primary screen
[2] = LOPAC library screen, 3 μM, MTT, neurosphere cultures
[3] = LOPAC screen, neurosphere MTT proliferation, 3 μM, day 7
[4] = yes = significantly inhibited neurosphere proliferation (P<0.01) in the primary screen
[5] = LOPAC library screen, 3 μM, MTT, secondary neurosphere cultures, day 7
[6] = yes/no: significantly inhibited neurosphere proliferation in the primary screen
[7] = LOPAC library screen at 3 μM, MTT, secondary neurosphere cultures, screened in singlets
[8] = LOPAC primary screen, neurosphere MTT proliferation, 3 μM, day 7
[9] = yes/no: significantly inhibited neurosphere proliferation (P<0.01) in the primary screen
[10] = LOPAC library screen at 3 μM, secondary neurosphere cultures, MTT

`O=C(/C=C/c1ccc(O)c(O)c1)OCCc1ccccc1` [Caffeic acid phenethyl ester] was tested, and the “Z Score” value (168 h, 3 µM) was 1.306, the Z score (168 h, 3 µM) was 1.306 and the Activity [1] was “no”.

For `Cn1c(=O)c2c(ncn2C)n(C)c1=O` [Caffeine], the “Z Score” value [2] was 0.4113 and the Z score [3] was 0.411.

With `CNc1ccc2oc(C[C@H]3O[C@@]4(CC[C@H]3C)O[C@H]([C@H](C)C(=O)c3ccc[nH]3)[C@H](C)C[C@H]4C)nc2c1C(=O)O` [Calcimycin] the “Z Score” value was 2.172, the Z score [3] was 2.172 and the Activity [1] was “no”.

For `Clc1ccc(C(c2ccc(Cl)cc2)n2cc[n+](CC(OCc3ccc(Cl)cc3Cl)c3ccc(Cl)cc3Cl)c2)cc1` (centres unmarked) [Calmidazolium chloride], the “Z Score” value (168 h, 3 µM) was −8.582, the Z score (168 h, 3 µM) was −8.582 and the Activity [4] was “yes”.

In the case of `CC1(C(=O)O)C2CCC(O2)C1(C)C(=O)O` (centres unmarked) [Cantharidic Acid], the “Z Score” value was −0.5529, the Z score [3] was −0.553 and the Activity [1] was “no”.

With `C[C@@]12C(=O)OC(=O)[C@]1(C)[C@H]1CC[C@@H]2O1` [Cantharidin] the “Z Score” value was −0.5781, the Z score [3] was −0.578 and the Activity [1] was “no”.

`Oc1cc2c(cc1O)CN(C(=S)NCCc1ccc(Cl)cc1)CCC2` [Capsazepine] was tested, and the “Z Score” value [2] was 1.26, the Z score [3] was 1.260 and the Activity [1] was “no”.

With `C[C@H](CS)C(=O)N1CCC[C@H]1C(=O)O` [Captopril] the “Z Score” value [5] was −1.285, the Z score [3] was −1.285 and the Activity [1] was “no”.

In the case of `C[N+](C)(C)CCOC(N)=O` [Carbachol], the “Z Score” value [2] was −0.03381, the Z score [3] was −0.034 and the Activity [1] was “no”.

In the case of `NC(=O)N1c2ccccc2C=Cc2ccccc21` [Carbamazepine], the “Z Score” value [2] was 1.114, the Z score [3] was 1.114 and the Activity [1] was “no”.

With `NCCC(=O)NCCc1c[nH]cn1` [Carcinine dihydrochloride] the “Z Score” value (168 h, 3 µM) was −1.023, the Z score (168 h, 3 µM) was −1.023 and the Activity [6] was “no”.

For `CCCC(C)(COC(N)=O)COC(=O)NC(C)C` (centres unmarked) [Carisoprodol], the “Z Score” value was −1.795, the Z score [3] was −1.795 and the Activity [1] was “no”.

With `O=NN(CCCl)C(=O)NCCCl` [Carmustine] the “Z Score” value [7] was 2.191, the Z score [3] was 2.191 and the Activity [1] was “no”.

`N[C@@H](C(=O)N[C@@H]1C(=O)N2C(C(=O)O)=C(Cl)CS[C@H]12)c1ccccc1` [Cefaclor] was tested, and the “Z Score” value [5] was −3.009, the Z score [8] was −3.009 and the Activity [9] was “yes”.

With `Cc1nnc(SCC2=C(C(=O)O)N3C(=O)[C@@H](NC(=O)Cn4cnnn4)[C@H]3SC2)s1` [Cefazolin sodium] the “Z Score” value [5] was −2.58, the Z score [8] was −2.580 and the Activity [9] was “yes”.

`CO[C@@]1(NC(=O)CSCC#N)C(=O)N2C(C(=O)O)=C(CSc3nnnn3C)CS[C@@H]21` [Cefmetazole sodium] was tested, and the “Z Score” value [7] was 2.503, the Z score [3] was 2.503 and the Activity [1] was “no”.

In the case of `CO/N=C(\C(=O)N[C@@H]1C(=O)N2C(C(=O)O)=C(COC(C)=O)CS[C@H]12)c1csc(N)n1` [Cefotaxime sodium], the “Z Score” value [10] was −1.096, the Z score [8] was −1.096 and the Activity [9] was “no”.

In the case of `NC(=O)c1cc[n+](CC2=C(C(=O)O)N3C(=O)[C@@H](NC(=O)[C@@H](c4ccccc4)S(=O)(=O)[O-])[C@H]3SC2)cc1` [Cefsulodin sodium salt hydrate], the “Z Score” value [5] was −2.277, the Z score [8] was −2.277 and the Activity [9] was “no”.

In the case of `CO/N=C(\C(=O)N[C@@H]1C(=O)N2C(C(=O)O)=C(CSc3nc(=O)c(=O)[nH]n3C)CS[C@H]12)c1csc(N)n1` [Ceftriaxone sodium], the Activity was “no”, the “Z Score” value [7] was 2.23 and the Z score [8] was 2.230.

For `CN(C)CCOC(=O)COc1ccc(Cl)cc1` [Centrophenoxine hydrochloride], the “Z Score” value was −0.3302, the Z score [3] was −0.330 and the Activity [1] was “no”.

With `CC1=C(C(=O)O)N2C(=O)[C@@H](NC(=O)[C@H](N)c3ccccc3)[C@H]2SC1` [Cephalexin hydrate] the “Z Score” value [5] was −3.966, the Z score [8] was −3.966 and the Activity [9] was “yes”.

With `CC(=O)OCC1=C(C(=O)[O-])N2C(=O)[C@@H](NC(=O)CCC[C@@H](N)C(=O)[O-])[C@H]2SC1.[Zn+2]` [Cephalosporin C zinc salt] the “Z Score” value was −3.309, the Z score [8] was −3.309 and the Activity [9] was “yes”.

`CC(=O)OCC1=C(C(=O)O)N2C(=O)[C@@H](NC(=O)Cc3cccs3)[C@H]2SC1` [Cephalothin sodium] was tested, and the “Z Score” value [7] was 2.264, the Z score [8] was 2.264 and the Activity [9] was “no”.

With `CC(=O)OCC1=C(C(=O)O)N2C(=O)[C@@H](NC(=O)CSc3ccncc3)[C@H]2SC1` [Cephapirin sodium] the “Z Score” value [2] was 0.6219, the Z score [8] was 0.622 and the Activity [9] was “no”.

For `CC1=C(C(=O)O)N2C(=O)[C@@H](NC(=O)[C@H](N)C3=CCC=CC3)[C@H]2SC1` [Cephradine], the “Z Score” value [2] was 0.7112, the Z score [8] was 0.711 and the Activity [9] was “no”.

`COc1ccc2c(c[n+](C)c3c4cc5c(cc4ccc23)OCO5)c1OC` [Chelerythrine (36), Chelerythrine, reference compound] was tested, and the “Z Score” value [5] was −10.67, the Z score [8] was −10.671 and the Activity [9] was “yes”.

For `O=C(O)c1cc(O)cc(C(=O)O)n1` [Chelidamic acid], the “Z Score” value (168 h, 3 µM) was 0.7261, the Z score (168 h, 3 µM) was 0.726 and the Activity [1] was “no”.

For `O=C(O)CCCc1ccc(N(CCCl)CCCl)cc1` [Chlorambucil], the “Z Score” value was 0.08078, the Z score [8] was 0.081 and the Activity [9] was “no”.

In the case of `CN1C(=O)CCS(=O)(=O)C1c1ccc(Cl)cc1` (centres unmarked) [Chlormezanone], the “Z Score” value was −0.9465, the Z score [3] was −0.947 and the Activity [1] was “no”.

With `CNC(=O)[C@H]1O[C@@H](n2cnc3c(NCc4cccc(I)c4)nc(Cl)nc32)[C@H](O)[C@@H]1O` [Chloro-IB-MECA] the “Z Score” value [10] was −0.8471, the Z score [3] was −0.847 and the Activity [1] was “no”.

For `NS(=O)(=O)c1cc2c(cc1Cl)N=CNS2(=O)=O` [Chlorothiazide], the “Z Score” value [5] was −3.165, the Z score [8] was −3.165 and the Activity [4] was “yes”.

With `CN(C)CCCN1c2ccccc2Sc2ccc(Cl)cc21` [Chlorpromazine hydrochloride] the “Z Score” value [2] was 0.7506, the Z score [8] was 0.751 and the Activity [9] was “no”.

`CCCNC(=O)NS(=O)(=O)c1ccc(Cl)cc1` [Chlorpropamide] was tested, and the “Z Score” value [10] was −0.1901, the Z score (primary LOPAC screen, 3 μM, MTT, neurosphere proliferation) was −0.190 and the Activity [6] was “no”.

For `CN(C)CC/C=C1/c2ccccc2Sc2ccc(Cl)cc21` [Chlorprothixene hydrochloride], the “Z Score” value (168 h, 3 µM) was −5.008, the Z score (168 h, 3 µM) was −5.008 and the Activity [9] was “yes”.

For `C[N+](C)(C)CCO.[Br-]` [Choline bromide], the Activity was “no”, the “Z Score” value was −0.73 and the Z score was −0.730.

In the case of `CN(C(=O)CCCOc1ccc2[nH]c(=O)ccc2c1)C1CCCCC1` [Cilostamide], the “Z Score” value [2] was 0.1756, the Z score [3] was 0.176 and the Activity [1] was “no”.

In the case of `O=C1CCc2cc(OCCCCc3nnnn3C3CCCCC3)ccc2N1` [Cilostazol], the “Z Score” value [2] was 0.8219, the Z score [3] was 0.822 and the Activity [1] was “no”.

In the case of `CN/C(=N/CCSCc1nc[nH]c1C)NC#N` [Cimetidine], the “Z Score” value [7] was 1.665, the Z score [3] was 1.665 and the Activity [1] was “no”.

In the case of `C(=C\c1ccccc1)/CN1CCN(C(c2ccccc2)c2ccccc2)CC1` [Cinnarizine], the “Z Score” value [5] was −1.375 and the Z score [3] was −1.375.

`CCn1nc(C(=O)O)c(=O)c2cc3c(cc21)OCO3` [Cinoxacin] was tested, and the “Z Score” value [10] was −1.095, the Z score [3] was −1.095 and the Activity [1] was “no”.

In the case of `CC(C)(Oc1ccc(C2CC2(Cl)Cl)cc1)C(=O)O` (centres unmarked) [Ciprofibrate], the “Z Score” value [5] was −1.326, the Z score [3] was −1.326 and the Activity [1] was “no”.

`c1ccc(C2CC2)c(OCC2=NCCN2)c1` [Cirazoline hydrochloride] was tested, and the “Z Score” value [2] was 0.4239, the Z score [3] was 0.424 and the Activity [1] was “no”.

`N.N.[Cl][Pt][Cl]` [Cisplatin] was tested, and the “Z Score” value [7] was 1.523, the Z score [8] was 1.523 and the Activity (yes/no: significantly inhibited neurosphere proliferation in primary screen) was “no”.

`CN(C)CCCC1(c2ccc(F)cc2)OCc2cc(C#N)ccc21` (centres unmarked) [Citalopram hydrobromide] was tested, and the “Z Score” value [5] was −1.858, the Z score [3] was −1.858 and the Activity [1] was “no”.

For `C[N+](C)(C)CCOP(=O)([O-])OP(=O)([O-])OC[C@H]1O[C@@H](n2ccc(N)nc2=O)[C@H](O)[C@@H]1O.[Na+]` [Citicoline sodium], the “Z Score” value [10] was −0.1331, the Z score [3] was −0.133 and the Activity [1] was “no”.

In the case of `CN1CCC[C@@H]1CCO[C@](C)(c1ccccc1)c1ccc(Cl)cc1` [Clemastine fumarate], the “Z Score” value (168 h, 3 µM) was −2.023 and the Z score (168 h, 3 µM) was −2.023.

For `Clc1ccc(Cn2c(CN3CCCC3)nc3ccccc32)cc1` [Clemizole hydrochloride], the “Z Score” value [7] was 2.788, the Z score [3] was 2.788 and the Activity [1] was “no”.

`O=P(O)(O)C(Cl)(Cl)P(=O)(O)O` [Clodronic acid] was tested, and the “Z Score” value [10] was −0.1842, the Z score [3] was −0.184 and the Activity [1] was “no”.

For `CCOC(=O)C(C)(C)Oc1ccc(Cl)cc1` [Clofibrate], the “Z Score” value [5] was −1.738 and the Z score [3] was −1.738.

`CN(C)CCCN1c2ccccc2CCc2ccc(Cl)cc21` [Clomipramine hydrochloride] was tested, and the Activity was “no”, the “Z Score” value [10] was −0.8439 and the Z score [8] was −0.844.

In the case of `Clc1cccc(Cl)c1N=C1NCCN1` [Clonidine hydrochloride], the “Z Score” value [2] was 1.041, the Z score [3] was 1.041 and the Activity [1] was “no”.

`C#CCN(C)CCCOc1ccc(Cl)cc1Cl` [Clorgyline hydrochloride] was tested, and the Activity was “no”, the “Z Score” value [7] was 1.52 and the Z score [8] was 1.520.

With `Clc1ccccc1C(c1ccccc1)(c1ccccc1)n1ccnc1` [Clotrimazole] the “Z Score” value [10] was −0.7158, the Z score [3] was −0.716 and the Activity [1] was “no”.
